Reference: ChEMBL document CHEMBL4619753, “Treating Cancer by Spindle Assembly Checkpoint Abrogation: Discovery of Two Clinical Candidates, BAY 1161909 and BAY 1217389, Targeting MPS1 Kinase” (J Med Chem, 2020)

Assays:
[1] = Dose normalized AUC in Wistar rat at 0.2 to 1 mg/kg, po measured up to 24 hrs by HPLC-MS-MS analysis; type: ADME, organism-based; conditions: in vivo
[2] = test system: HeLa; test: cells; conditions: Homo sapiens, 96 h
Description: Antiproliferative activity against human HeLa cells after 96 hrs by crystal violet staining based assay

[3] = Oral bioavailability in Wistar rat at 0.2 to 1 mg/kg measured up to 24 hrs by HPLC-MS-MS analysis; type: ADME, organism-based; conditions: in vivo
[4] = Blood clearance in Wistar rat at 0.1 to 0.5 mg/kg, iv administered as bolus dose measured up to 24 hrs by HPLC-MS-MS analysis; type: ADME, organism-based
[5] = Volume of distribution at steady state in Wistar rat at 0.1 to 0.5 mg/kg, iv administered as bolus dose measured up to 24 hrs by HPLC-MS-MS analysis; type: ADME, organism-based; conditions: in vivo; for Vd: Wistar, read-out: Vdss
[6] = Dose normalized AUC in Beagle dog at 0.2 to 1 mg/kg, po measured up to 24 hrs by HPLC-MS-MS analysis; type: ADME, organism-based, Canis lupus familiaris; conditions: in vivo
[7] = Half life in Wistar rat at 0.1 to 0.5 mg/kg, iv administered as bolus dose measured up to 24 hrs by HPLC-MS-MS analysis; type: ADME, organism-based; conditions: in vivo; for half-life: Wistar
[8] = Half life in Beagle dog at 0.1 to 0.5 mg/kg, administered as iv infusion measured up to 24 hrs by HPLC-MS-MS analysis; type: ADME, organism-based, Canis lupus familiaris; conditions: in vivo
[9] = Volume of distribution at steady state in Beagle dog at 0.1 to 0.5 mg/kg administered as iv infusion measured up to 24 hrs by HPLC-MS-MS analysis; type: ADME, organism-based, Canis lupus familiaris; conditions: in vivo, read-out: Vdss
[10] = Blood clearance in Beagle dog at 0.1 to 0.5 mg/kg administered as iv infusion measured up to 24 hrs by HPLC-MS-MS analysis; type: ADME, organism-based, Canis lupus familiaris
[11] = Oral bioavailability in Beagle dog at 0.2 to 1 mg/kg measured up to 24 hrs by HPLC-MS-MS analysis; type: ADME, organism-based, Canis lupus familiaris; conditions: in vivo
[12] = Aqueous solubility of the compound; type: physicochemical; conditions: buffer
[13] = Lipophilicity, LogD of compound at pH 7.5 by reverse phase HPLC analysis; type: physicochemical; conditions: buffer
[14] = test system: HT-29; test: cells; conditions: Homo sapiens, HT-29, 96 h
Description: Antiproliferative activity against human HT-29 cells after 96 hrs by crystal violet staining based assay

| Structure (SMILES) | IC50 [2] [nM] | AUC/dose [1] [kg·h/L] | bioavailability [3] [%] | also measured |
| --- | --- | --- | --- | --- |
| CC(C)CNc1nccn2c(-c3ccc(C(=O)NC4CC4)cc3)cnc12 |  |  |  | AUC/dose ([1]; BLD = below limit of detection): Bld |
| CC(C)CNc1cc(-c2ccccc2)cc2c1ncn2-c1ccc(C(=O)NC2CC2)cc1 | 2480 |  |  |  |
| CC(C)CNc1cccc2c1ncn2-c1ccc(C(=O)NC2CC2)cc1 | > 10000 |  |  |  |
| N#Cc1ccccc1Nc1nc2ccc(-c3ccc(NC(=O)Cc4ccccc4)cc3)cn2n1 | 695 | 0.084 | 12 |  |
| C=C(c1ccc(OC)c(F)c1)c1cc(NCCC(F)(F)F)c2ncc(-c3ccc(C(=O)NC4CC4)c(C)c3)n2n1 |  | 0.47 | 33 | clearance [4]: 14.5 mL/min/kg; Vd [5]: 2.1 L/kg; AUC/dose [6]: 0.005 kg·h/L; half-life [7]: 3.1 h; half-life [8]: 0.84 h; Vd [9]: 2.6 L/kg; clearance [10]: 56.7 mL/min/kg; bioavailability [11]: 1.4% |
| COc1cc(S(C)(=O)=O)ccc1Nc1nc2ccc(-c3ccc(NC(=O)Cc4ccc(F)cc4)cc3)cn2n1 | 246 | 0.98 | 49 |  |
| COc1cc(C(=O)N2CC3(COC3)C2)ccc1Nc1nc2ccc(-c3ccc(NC(=O)Cc4ccc(F)cc4)cc3)cn2n1 | 85 | 0.049 |  |  |
| COc1cc(S(C)(=O)=O)ccc1Nc1nc2ccc(-c3ccc(NC(=O)[C@@H](C)c4ccc(F)cc4)cc3)cn2n1 | 7000 |  |  |  |
| CC(C)CNc1nc(-c2ccccc2)nn2c(-c3ccc(C(=O)NC4CC4)cc3)cnc12 | > 10000 |  |  |  |
| Cc1cc(-c2cnc3c(NCCC(F)(F)F)cc(C4(c5cc(F)ccc5O)CC4)nn23)ccc1C(=O)NC1CC1 |  | 0.76 | 45 | clearance [4]: 14.2 mL/min/kg; Vd [5]: 3.1 L/kg; AUC/dose [6]: 1.1 kg·h/L; half-life [7]: 4.7 h; half-life [8]: 2.1 h; Vd [9]: 2.1 L/kg; clearance [10]: 21.7 mL/min/kg; bioavailability [11]: 81% |
| CC(C)CNc1cc(-c2ccccc2)nn2c(-c3ccc(C(=O)NC4CC4)cc3)cnc12 | 1550 |  |  |  |
| N#Cc1ccccc1Nc1nc2ccc(-c3ccc(NC(=O)Cc4ccc(F)cc4)cc3)cn2n1 | 266 | 0.066 | 6.6 |  |
| COc1cc(C(=O)N2C[C@@H]3C[C@H]2CO3)ccc1Nc1nc2ccc(-c3ccc(NC(=O)Cc4ccc(F)cc4)cc3)cn2n1 | 50 | 0.23 | 17 |  |
| COc1cc(C(=O)N2CCOCC2)ccc1Nc1nc2ccc(-c3ccc(NC(=O)Cc4ccc(F)cc4)cc3)cn2n1 | 140 | 0.81 | 20 |  |
| CC(C)CNc1nc(-c2ccccc2)cc2c(-c3ccc(C(=O)NC4CC4)cc3)cnn12 | 7730 |  |  |  |
| O=C(Cc1ccc(F)cc1)Nc1ccc(-c2ccc3nc(Nc4ccc(C(=O)N5CCOCC5)cc4)nn3c2)cc1 | 725 |  |  |  |

| Structure (SMILES) | IC50 [2] [nM] | AUC/dose [1] [kg·h/L] | bioavailability [3] [%] | also measured |
| --- | --- | --- | --- | --- |
| COc1cc(S(C)(=O)=O)ccc1Nc1nc2ccc(-c3ccc(NC(=O)C4(c5ccc(F)cc5)CC4)cc3)cn2n1 | > 10000 |  |  |  |
| O=C(Cc1ccc(F)cc1)Nc1ccc(-c2ccc3nc(Nc4ccc(C(=O)N5CCOCC5)cc4OCC(F)(F)F)nn3c2)cc1 | 26 |  |  | solubility [12]: Insoluble; chromatographic logD [13]: 3.9 |
| COc1cc(C(=O)N(C)C)ccc1Nc1nc2ccc(-c3ccc(NC(=O)Cc4ccc(F)cc4)cc3)cn2n1 | 200 |  |  |  |
| CNC(=O)Nc1ccc(-c2cnc3c(NCC(C)C)nccn23)cc1 |  | 4.9 | 94 |  |
| COc1ccccc1Nc1nc2ccc(-c3ccc(NC(=O)Cc4ccccc4)cc3)cn2n1 | 2300 | 0.066 | 9 |  |
| COc1cc(N2CCOC2=O)ccc1Nc1nc2ccc(-c3ccc(NC(=O)Cc4ccc(F)cc4)cc3)cn2n1 | 120 | 1.9 | 52 |  |
| COc1cc(C(=O)N2CC(F)C2)ccc1Nc1nc2ccc(-c3ccc(NC(=O)[C@H](C)c4ccc(F)cc4)cc3)cn2n1 | 57 | 1.8 | 55 | clearance [4]: 5.17 mL/min/kg; Vd [5]: 2.1 L/kg; AUC/dose [6]: 0.64 kg·h/L; half-life [7]: 5.3 h; half-life [8]: 7 h; Vd [9]: 5.2 L/kg; clearance [10]: 9.83 mL/min/kg; bioavailability [11]: 39% |
| COc1ccccc1Nc1nc2ccc(-c3cc(C)c(O)c(C)c3)cn2n1 | 5900 |  |  |  |
| COc1cc(C(=O)N2CC(F)C2)ccc1Nc1nc2ccc(-c3ccc(NC(=O)Cc4ccc(F)cc4)cc3)cn2n1 | 37 |  |  |  |
| COc1cc(N2CCOC2=O)ccc1Nc1nc2ccc(-c3ccc(NC(=O)[C@H](C)c4ccc(F)cc4)cc3)cn2n1 | 270 | 4.2 | 49 | Vdss ([5]; 24 h): 1.4 L/kg; t1/2 ([7]; 24 h): 8 h |
| Cc1cc(-c2cnc3c(NCC(C)C)nccn23)ccc1C(=O)NC1CC1 |  | 0.22 | 20 |  |
| CCC(C(=O)Nc1ccc(-c2ccc3nc(Nc4ccc(S(C)(=O)=O)cc4OC)nn3c2)cc1)c1ccc(F)cc1 (racemic) | 7500 |  |  |  |
| COc1cc(S(C)(=O)=O)ccc1Nc1nc2ccc(-c3ccc(NC(=O)[C@H](C)c4ccc(F)cc4)cc3)cn2n1 [BAY-1161909] | 260 | 3.3 | 49 | clearance [4]: 3.17 mL/min/kg; Vd [5]: 2.4 L/kg; AUC/dose [6]: 0.52 kg·h/L; half-life [7]: 14 h; half-life [8]: 6.3 h; Vd [9]: 6.7 L/kg; clearance [10]: 23.3 mL/min/kg; bioavailability [11]: 63% |
| COc1ccc(Oc2cc(NCCC(F)(F)F)c3ncc(-c4ccc(C(=O)NC5CC5)c(C)c4)n3n2)c(F)c1F [BAY-1217389] |  | 2.4 | 72 | Vd [5]: 2.2 L/kg; AUC/dose [6]: 2.5 kg·h/L; half-life [7]: 7.8 h; half-life [8]: 13 h; Vd [9]: 3.9 L/kg; bioavailability [11]: 71% |
| Cc1cc(-c2cnn3c(NC[C@H]4C[C@@](C)(O)C4)cc(Oc4cccnc4)nc23)ccc1C(=O)NC1CC1 [LUVIXASERTIB] |  |  |  | IC50 [14]: 557 nM |
